Source: US10106523B2, “Amide compound” (ASTELLAS PHARMA INC., priority 2014, dated 2018)

What was measured:
[1] = biological target: rat EP4 receptor (Rattus norvegicus, UniProt P43114); assay: In vivo rat EP4 receptor antagonistic action (plasma TNF-α after LPS and EP4 agonist ONO-AE1-437); parameters: from tissue; host or cells: whole animal (SD rat); details: SD rats, 0.03 mg/kg po, ONO-AE1-437 0.01 mg/kg sc, LPS 0.01 mg/kg iv
Experimental: Test Example 5: Evaluation Test of In Vivo Rat EP4 Receptor Antagonistic Action
SD rats (male, 6-week old) under non-fasting conditions were used for the test. A test compound dissolved in a mixed solution of PEG 400: 20% Tween 80: 1 mol/L aqueous NaHCO3 solution=1:4:5 was orally administered (po) to the rat at a dose of 0.03 mg/kg (5 mL/kg). After 1 hour, an active metabolite (ONO-AE1-437 (CAS No. 256382-23-7)) of an EP4 agonist ONO-4819 dissolved in physiological saline was subcutaneously administered (sc) to the back of the rat at a dose of 0.01 mg/kg (5 mL/kg). After 30 minutes, Lipopolysaccharide (LPS, 0.01 mg/kg) was administered to the tail vein (2 mL/kg), and after 60 minutes, about 0.5 mL of blood was collected in a heparin-containing tube under anesthesia. The blood sample was centrifuged (1000×g, 10 minutes, 4° C.) to separate the plasma. The TNF-α concentration in the rat plasma was measured by an ELISA kit (DuoSet ELISA, R&D Systems). An inhibitory rate of the test compound group (n=5) with respect to the TNF-α production inhibitory action by the EP4 agonist was calculated by taking the TNF-α concentration of the group (n=5) not treated with ONO-AE1-437 as 100% and taking the TNF-α concentration of the group (n=5) treated with ONO-AE1-437 as 0%.

[2] = biological target: T1, rat EP3 receptor (Rattus norvegicus, UniProt P34980); assay: Selectivity test: antagonistic action on rat EP3 receptor (intracellular Ca2+, HEK-293 cells); format: cell-based; details: PGE2 100 nmol/L, HEK-293 cells stably expressing rat EP3; read-out: Concentration up to which no inhibitory action of 50% or more on the increase in intracellular Ca2+ concentration due to PGE2 through the rat EP3 receptor
T1 construct: expressed in transfected cells
T1 sequence (P34980 1-365): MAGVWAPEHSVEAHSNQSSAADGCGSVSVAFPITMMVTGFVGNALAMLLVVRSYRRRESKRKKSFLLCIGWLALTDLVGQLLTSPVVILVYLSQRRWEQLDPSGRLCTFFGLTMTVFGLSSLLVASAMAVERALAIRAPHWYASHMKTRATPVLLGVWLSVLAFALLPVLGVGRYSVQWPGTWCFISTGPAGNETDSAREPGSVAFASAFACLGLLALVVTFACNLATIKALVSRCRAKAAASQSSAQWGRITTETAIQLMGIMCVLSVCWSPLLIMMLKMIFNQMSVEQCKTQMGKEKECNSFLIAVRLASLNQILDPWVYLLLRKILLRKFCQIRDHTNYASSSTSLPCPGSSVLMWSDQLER
Experimental: Test Example 9: Evaluation Test of Receptor Antagonistic Action on Rat EP1/EP2/EP3 Receptor (Selectivity Test)
The antagonistic action of Compound A on other subtypes ([…], EP2, and EP3) of the rat-derived PGE2 receptor was evaluated. For EP1 and EP3, the intracellular Ca^2+ amount was used as an indicator, and for EP2, the intracellular cAMP amount was used as an indicator, so as to investigate the action of the test compound.
Construction of Rat EP1, EP2, or EP3 Receptor Expressing Vector: A rat EP1 receptor gene (GenBank accession No.: D88751.1), a rat EP2 receptor gene (GenBank accession No.: NM_031088.1), or a rat EP3 receptor gene (GenBank accession No.: NM_012704.1) were inserted respectively into an expression vector pcDNA3.1-V5-His-TOPO (Invitrogen Inc.).
Construction of Cell Stably Expressing Rat EP1, EP2, or EP3 Receptor: […]
The intracellular Ca^2+ concentration was measured using FLIPR tetra (Molecular Devices, LLC.) with the fluorescence intensity of the Dye as an indicator. […] By taking the Ca^2+ concentration when PGE2 was added to a final concentration of 100 nmol/L as 100%, and taking the Ca^2+ concentration when PGE2 was not added as 0%, the Ca^2+ concentration in percentage with a treatment with the compound was calculated.

Sequence of rat EP4 receptor (P43114 whole entry): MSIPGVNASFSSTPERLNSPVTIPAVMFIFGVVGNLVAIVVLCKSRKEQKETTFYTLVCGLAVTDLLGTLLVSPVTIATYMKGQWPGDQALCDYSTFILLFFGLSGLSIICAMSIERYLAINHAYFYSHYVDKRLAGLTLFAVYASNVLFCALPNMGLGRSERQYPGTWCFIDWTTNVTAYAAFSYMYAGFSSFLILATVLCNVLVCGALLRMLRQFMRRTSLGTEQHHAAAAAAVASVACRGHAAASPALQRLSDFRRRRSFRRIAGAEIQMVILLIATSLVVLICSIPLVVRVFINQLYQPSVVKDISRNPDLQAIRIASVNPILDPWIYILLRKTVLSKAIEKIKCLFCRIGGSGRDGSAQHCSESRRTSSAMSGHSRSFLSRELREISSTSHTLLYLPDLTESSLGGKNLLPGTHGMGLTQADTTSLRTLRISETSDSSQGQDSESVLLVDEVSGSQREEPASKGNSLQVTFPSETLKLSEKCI

Inhibition of the TNF-α production inhibitory action of the EP4 agonist ONO-AE1-437 [1]: 38%
IC50 [2]: > 10 µM
Compound: Cc1nn(Cc2cc3ccccc3cn2)c(C(=O)N[C@@H](C)c2ccc(C(=O)O)cc2)c1Br [Compound A, 4-[(1S)-1-({[4-bromo-1-(isoquinolin-3-ylmethyl)-3-methyl-1H-pyrazol-5-yl]carbonyl}amino)ethyl]benzoic acid]
